We go through 17 compounds from patent US12479827B2, “Heteroaromatic carboxamide derivatives as plasma kallikrein inhibitors” (Boehringer Ingelheim International GmbH, priority 2020, dated 2025).

The target of one assay is T1, Human PKK (Homo sapiens, UniProt P03952).
T1 construct: purchased Enzyme Research Laboratories
Briefly: Inhibition of PKK using an endpoint assay (human PKK). The class given is biochemical. The note with it: fluorogenic substrate H-Pro-Phe-Arg-AMC, 1 h room temperature, method names human or rat PKK, table does not say which. In short, it runs like this: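 Endpoint fluorescence (ex 355 nm, em 460 nm) after stopping with 1 μM final PPACK II. Buffer: Tris 100 mM pH 7.8, NaCl 150 mM, BSA 0.1%, Tween20 0.05%, with 1% DMSO present; enzyme is human plasma kallikrein.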

For assay [1], the target named is T2, PKK in kaolin activated human platelet poor plasma (Homo sapiens, UniProt P03952).
T2 construct: Platelet poor plasma (PPP) obtained from human wholeblood; from tissue
T2 sequence (P03952 391-638 limits assumed): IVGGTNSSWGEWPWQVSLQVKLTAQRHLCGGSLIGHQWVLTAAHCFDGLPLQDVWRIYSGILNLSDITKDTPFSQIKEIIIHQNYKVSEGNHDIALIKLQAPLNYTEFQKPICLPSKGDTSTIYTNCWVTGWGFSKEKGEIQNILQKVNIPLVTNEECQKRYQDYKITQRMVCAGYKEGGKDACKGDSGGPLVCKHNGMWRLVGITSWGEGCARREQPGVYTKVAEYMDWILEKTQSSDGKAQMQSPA
T2 sequence (P03952 20-390 limits assumed): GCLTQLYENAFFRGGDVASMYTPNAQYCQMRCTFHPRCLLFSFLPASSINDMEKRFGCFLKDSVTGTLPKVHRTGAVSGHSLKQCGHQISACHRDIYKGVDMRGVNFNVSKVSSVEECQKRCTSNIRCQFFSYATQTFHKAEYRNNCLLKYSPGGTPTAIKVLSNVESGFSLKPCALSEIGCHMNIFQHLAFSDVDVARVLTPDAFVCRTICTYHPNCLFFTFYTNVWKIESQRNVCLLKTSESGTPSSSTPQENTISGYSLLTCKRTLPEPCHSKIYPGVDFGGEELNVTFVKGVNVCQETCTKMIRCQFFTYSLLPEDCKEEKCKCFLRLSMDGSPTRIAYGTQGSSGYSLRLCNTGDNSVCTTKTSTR
Briefly: Inhibition of PKK in kaolin activated human PPP.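 Note: readout is the rate of fluorogenic substrate cleavage in rfu per min.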 The format is biochemical. The note with it: 25-750 μg/mL kaolin, global fit, text b200 calls the values IC90. The method, then: Platelet poor plasma (PPP) obtained from human wholeblood, anticoagulated with Na-Citrate, is incubated with various concentrations of the test compound together with either 25, 75, 250, or 750 μg/mL kaolin in assay buffer for 20 min at 37° C. such that for each kaolin dose used a concentration response is obtained for the test compound.

T1 sequence (P03952 20-390 limits assumed): as above
T1 sequence (P03952 391-638 limits assumed): as the sequence (P03952 391-638 limits assumed) above

As for `Cc1nc(N2CC3C(C2)C3(F)F)ccc1Cn1ccc(C(=O)N[C@@H]2CCc3c2ncn3C)c1` (stereo partly drawn) [Example 141, 1-[(6-{6,6-Difluoro-3-azabicyclo[3.1.0]hexan-3-yl}-2-methylpyridin-3-yl)methyl]-N-[(4R)-1-methyl-1H,4H,5H,6H-cyclopenta[d]imidazol-4-yl]-1H-pyrrole-3-carboxamide], the IC50 against Human PKK was 2 nM; in assay [1], 621 nM.
In the case of `Cc1nc(N2CC3C(C2)C3(F)F)ccc1Cc1cc(C(=O)N[C@@H]2CCc3c2ncn3C)c[nH]1` (stereo partly drawn) [Example 142, 5-[(6-{6,6-Difluoro-3-azabicyclo[3.1.0]hexan-3-yl}-2-methylpyridin-3-yl)methyl]-N-[(4R)-1-methyl-1H,4H,5H,6H-cyclopenta[d]imidazol-4-yl]-1H-pyrrole-3-carboxamide], the IC50 is 5.8 nM on Human PKK and 731 nM in assay [1].
Take `CCc1nc(N2C[C@@H]3[C@H](C)[C@@H]3C2)ccc1Cn1cnc(C(=O)N[C@@H]2CCc3c2ncn3C)c1` [Example 143, 1-({2-Ethyl-6-[(1R,5S,6R)-6-methyl-3-azabicyclo[3.1.0]hexan-3-yl]pyridin-3-yl}methyl)-N-[(4R)-1-methyl-1H,4H,5H,6H-cyclopenta-[d]imidazol-4-yl]-1H-imidazole-4-carboxamide]: the IC50 came to 0.6 nM against Human PKK and 1170 nM in assay [1].
The matching figures for `Cn1cnc2c1CC[C@H]2NC(=O)c1cc(Cc2ccc(N3CC4CC4C3)nc2C(F)F)no1` (stereo partly drawn) [Example 144, 3-[(6-{3-Azabicyclo[3.1.0]hexan-3-yl}-2-(difluoromethyl)pyridin-3-yl)methyl]-N-[(4R)-1-methyl-1H,4H,5H,6H-cyclopenta[d]imidazol-4-yl]-1,2-oxazole-5-carboxamide]: 0.8 nM and 248 nM.
Take `Cn1cnc2c1CC[C@H]2NC(=O)c1cc(Cc2ccc(N3CC4C(C3)C4(F)F)nc2C(F)F)no1` (stereo partly drawn) [Example 145, 3-[(6-{6,6-Difluoro-3-azabicyclo[3.1.0]hexan-3-yl}-2-(difluoromethyl)pyridin-3-yl)methyl]-N-[(4R)-1-methyl-1H,4H,5H,6H-cyclopenta-[d]imidazol-4-yl]-1,2-oxazole-5-carboxamide]: the results for the IC50 (at Human PKK; in assay [1]) were 0.7 nM and 245 nM, respectively.
For `CCc1nc(N2CC3CC3C2)ccc1Cc1cc(C(=O)N[C@@H]2CCc3c2ncn3C)on1` (stereo partly drawn) [Example 146, 3-[(6-{3-Azabicyclo[3.1.0]hexan-3-yl}-2-ethylpyridin-3-yl)methyl]-N-[(4R)-1-methyl-1H,4H,5H,6H-cyclopenta[d]imidazol-4-yl]-1,2-oxazole-5-carboxamide], in that order: 1.1 nM and 274 nM.
Take `Cn1cnc2c1CC[C@H]2NC(=O)c1cc(Cc2ccc(N3CC4C(C3)C4(F)F)nc2CO)no1` (stereo partly drawn) [Example 147, 3-[(6-{6,6-Difluoro-3-azabicyclo[3.1.0]hexan-3-yl}-2-(hydroxymethyl)pyridin-3-yl)methyl]-N-[(4R)-1-methyl-1H,4H,5H,6H-cyclopenta-[d]imidazol-4-yl]-1,2-oxazole-5-carboxamide]: the IC50 is 1.4 nM against Human PKK and 149 nM in assay [1].
With `Cn1cnc2c1CC[C@H]2NC(=O)c1cc(Cc2ccc(N3CC4CC4C3)nc2Cl)no1` (stereo partly drawn) [Example 148, 3-[(6-{3-Azabicyclo[3.1.0]hexan-3-yl}-2-chloropyridin-3-yl)methyl]-N-[(4R)-1-methyl-1H,4H,5H,6H-cyclopenta[d]imidazol-4-yl]-1,2-oxazole-5-carboxamide], the IC50 at Human PKK worked out at 1.4 nM; in assay [1], 985 nM.
For `Cn1cnc2c1CC[C@H]2NC(=O)c1cc(Cc2ccc(N3CC4CC4C3)nc2CO)no1` (stereo partly drawn) [Example 149, 3-[(6-{3-Azabicyclo[3.1.0]hexan-3-yl}-2-(hydroxymethyl)pyridin-3-yl)methyl]-N-[(4R)-1-methyl-1H,4H,5H,6H-cyclopenta[d]imidazol-4-yl]-1,2-oxazole-5-carboxamide], in that order: 1.6 nM and 511 nM.
For `Cn1cnc2c1CC[C@H]2NC(=O)c1cc(Cc2ccc(N3CC4C(C3)C4(F)F)nc2Cl)no1` (stereo partly drawn) [Example 150, 3-[(2-Chloro-6-{6,6-difluoro-3-azabicyclo[3.1.0]hexan-3-yl}pyridin-3-yl)methyl]-N-[(4R)-1-methyl-1H,4H,5H,6H-cyclopenta-[d]imidazol-4-yl]-1,2-oxazole-5-carboxamide], the IC50 was 1 nM on Human PKK and 373 nM in assay [1].
Consider `Cn1cnc2c1CC[C@H]2NC(=O)c1cc(Cc2ccc(N3CC4CC4C3)nc2)no1` (stereo partly drawn) [Example 151, 3-[(6-{3-Azabicyclo[3.1.0]hexan-3-yl}pyridin-3-yl)methyl]-N-[(4R)-1-methyl-1H,4H,5H,6H-cyclopenta[d]imidazol-4-yl]-1,2-oxazole-5-carboxamide], for which the IC50 on Human PKK came to 3.6 nM; in assay [1] it was 1140 nM.
`Cc1nc(N2CC3C(C2)C3(F)F)ccc1Cc1cc(C(=O)N[C@@H]2CCc3c2ncn3C)on1` (stereo partly drawn) [Example 152, 3-[(6-{6,6-Difluoro-3-azabicyclo[3.1.0]hexan-3-yl}-2-methylpyridin-3-yl)methyl]-N-[(4R)-1-methyl-1H,4H,5H,6H-cyclopenta[d]imidazol-4-yl]-1,2-oxazole-5-carboxamide]: the IC50 at Human PKK came out at 1.2 nM; in assay [1], 430 nM.
As for `CCc1nc(N2CC3C(C2)C3(F)F)ccc1Cc1cc(C(=O)N[C@@H]2CCc3c2ncn3C)on1` (stereo partly drawn) [Example 153, 3-[(6-{6,6-Difluoro-3-azabicyclo[3.1.0]hexan-3-yl}-2-ethylpyridin-3-yl)methyl]-N-[(4R)-1-methyl-1H,4H,5H,6H-cyclopenta[d]imidazol-4-yl]-1,2-oxazole-5-carboxamide], the IC50 stood at 0.5 nM at Human PKK and 280 nM in assay [1].
In the case of `Cc1nc(N2CC3CC3C2)ccc1Cc1ncc(C(=O)N[C@@H]2CCc3c2ncn3C)o1` (stereo partly drawn) [Example 154, 2-[(6-{3-Azabicyclo[3.1.0]hexan-3-yl}-2-methylpyridin-3-yl)methyl]-N-[(4R)-1-methyl-1H,4H,5H,6H-cyclopenta[d]imidazol-4-yl]-1,3-oxazole-5-carboxamide], the figures for the IC50 (against Human PKK; in assay [1]) were 9.9 nM and 4270 nM, respectively.
For `Cc1nc(N2CC3C(C2)C3(F)F)ccc1Cc1ncc(C(=O)N[C@@H]2CCc3c2ncn3C)o1` (stereo partly drawn) [Example 155, 2-[(6-{6,6-Difluoro-3-azabicyclo[3.1.0]hexan-3-yl}-2-methylpyridin-3-yl)methyl]-N-[(4R)-1-methyl-1H,4H,5H,6H-cyclopenta[d]imidazol-4-yl]-1,3-oxazole-5-carboxamide], in that order: 15.4 nM and 4100 nM.
`CCc1nc(N2CC3CC3C2)ccc1Cc1ncc(C(=O)N[C@@H]2CCc3c2ncn3C)o1` (stereo partly drawn) [Example 158, 2-[(6-{3-Azabicyclo[3.1.0]hexan-3-yl}-2-ethylpyridin-3-yl)methyl]-N-[(4R)-1-methyl-1H,4H,5H,6H-cyclopenta[d]imidazol-4-yl]-1,3-oxazole-5-carboxamide]: the IC50 was 4.6 nM against Human PKK and 2100 nM in assay [1].
`Cn1cnc2c1CC[C@H]2NC(=O)c1c[nH]c(Cc2ccc(N3CC4C(C3)C4(F)F)nc2Cl)c1` (stereo partly drawn) [Example 159, 5-[(2-Chloro-6-{6,6-difluoro-3-azabicyclo-[3.1.0]hexan-3-yl}pyridin-3-yl)methyl]-N-[(4R)-1-methyl-1H,4H,5H,6H-cyclopenta[d]imidazol-4-yl]-1H-pyrrole-3-carboxamide]: the IC50 on Human PKK was determined as 3.5 nM; in assay [1] it was 1140 nM.
